Laboratory results from PubChem BioAssay AID179 (DTP/NCI, 2004).
Activity calls are given as the source filed them.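 The calls were made as follows: active = compounds giving half or more protection of infected cells from virus-caused growth loss, again on retest; inactive = the rest.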

System: CEM cells HIV-1 protection, formazan growth assay
Test: NCI AIDS Antiviral Assay
Conditions: for IC50: measured here: growth of uninfected CEM cells
Summary of the method: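 Steps: treat uninfected and HIV-1-infected human CEM cells at five drug levels; quantify growth by soluble formazan; retest any compound reaching 50% protection; classify actives from the retest.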

Structure (SMILES)	EC50	IC50	outcome
O=C1OC2(c3ccc(O)cc3Oc3cc(O)ccc32)c2c1c(-c1ccccc1)c(-c1ccccc1)c(-c1ccccc1)c2-c1ccccc1	10 µM	16.6 µM	–
CCN(CC)c1nnc(CCCCCCCCc2nnc(N(CC)CC)o2)o1	> 200 µM	> 200 µM	–
C=CC(=O)N1C/C(=C\c2ccc([N+](=O)[O-])cc2)C(=O)/C(=C/c2ccc([N+](=O)[O-])cc2)C1	> 200 µM	0.0631 µM	–
CCOC(=O)NC(Nc1c(F)c(F)c(F)c(F)c1F)(C(F)(F)F)C(F)(F)F	> 200 µM	141 µM	–
CC(C)(C)[Si](C)(C)OCC1OC(n2ccc(=O)[nH]c2=O)C(O[Si](C)(C)C(C)(C)C)[C@]12N[C@H](C(=O)O)CS2 (stereo not given in full)	> 200 µM	10.7 µM	–
COC(=O)C(=O)C(C(=O)OC)C(=O)C(=O)Nc1ccccc1C(N)=O (stereo not given)	> 74.1 µM	> 74.1 µM	–
CCOP(=O)(OCC)/C(C#N)=C/c1ccc(CO)o1	> 871 µM	178 µM	–
COc1ccc(CCn2nccc2C)cc1	> 200 µM	> 200 µM	–
CCC(/C=C/C1OC(=O)C=CC1C)=C\C(C)C/C=C/C(C)=C/C(C)C(=O)C(C)C(O)C(C)C/C(C)=C/C(=O)O (stereo not given)	–	–	inactive
Cc1cc(-c2ccc(C(=O)C(c3ccccc3)(c3ccccc3)c3ccccc3)[nH]2)on1	> 200 µM	18.6 µM	–
Nc1nc2c(N)cc(C(F)(F)F)cc2nc1-c1ccccc1	> 17 µM	> 17 µM	–
Cc1ccnc2c1C(=O)C(=O)C=C2N(C)C	–	–	inactive
O=C(/C(=C/c1ccc([N+](=O)[O-])cc1)c1ccccc1)c1ccccc1	> 8.32 µM	5.25 µM	–
N/N=C(\C(=O)Nc1ccc([N+](=O)[O-])cc1)C(C1=Nc2cc([N+](=O)[O-])ccc2NC1)[N+](=O)[O-] (stereo not given)	> 30.9 µM	> 30.9 µM	–
c1ccc(COc2ncccc2C2SCCCS2)cc1	> 200 µM	> 200 µM	–
C=CCN=C([S-])Nc1cccc(C(=O)O)c1.[Au+].[Na+]	–	–	inactive
O=C(/C=C/c1ccccc1)Oc1ccc(C(=O)/C=C/c2ccccc2)cc1	> 151 µM	6.76 µM	–
Cc1cc(N(CCC#N)CCC#N)ccc1/C(N=Nc1cccc(Cl)c1)=N/NC(=O)c1cc(Cl)ccc1O	> 200 µM	11.7 µM	–
COc1ccc(C2(C(OC)OC)NC(=O)N(C)C2=O)cc1 (stereo not given)	> 200 µM	> 200 µM	–
O=c1c2cc3c(=O)n4c(cc(-c5ccccc5)c5cc(Cl)ccc54)nc3cc2nc2cc(-c3ccccc3)c3cc(Cl)ccc3n12	> 100 µM	> 100 µM	–
CN(C)c1cccc(NC2=NCCO2)c1	> 200 µM	33.9 µM	–

Structure (SMILES)	EC50	IC50	outcome
COC(=O)c1cc(=O)c2scc(C)[n+]2[nH]1	> 955 µM	> 955 µM	–
NCC1(N2CCOCC2)C2CCCC21CNc1ccccc1 (stereo not given)	> 24 µM	> 24 µM	–
COc1cc(CC(=O)c2cc3c(cc2-c2ccccc2)OCO3)cc(OC)c1OC	> 89.1 µM	24 µM	–
Cc1cc(N(CCC#N)CCC#N)ccc1/C=C1/N=C(c2ccccc2)N(N)C1=O	> 63.1 µM	42.7 µM	–
CC(=O)N1c2ccccc2Sc2c1ccc1ccccc21	> 200 µM	45.7 µM	–
O=C(CCC1C(=O)NC(=S)NC1=O)c1ccc2ccccc2c1	> 110 µM	> 110 µM	–
COc1c(C)c2c(c3c1c(=O)c1ccccc1n3C)C=CC(C)(C)O2	> 15.5 µM	11 µM	–
CCCCCCCCCCCc1nnc(N)o1	–	–	inactive
CN(C)c1ccc(-c2nnc3c(c(=O)n(C)c(=O)n3C)[n+]2[O-])cc1	> 200 µM	19.1 µM	–
CC1CC(c2cccc3c2OCO3)=Nc2ccccc2S1 (stereo not given)	> 17.4 µM	> 17.4 µM	–
CN(C)c1ccc(N=Nc2ccc(/C=C/c3ccnc4ccccc34)cc2)cc1	> 19.1 µM	> 19.1 µM	–
COc1cc2c3cc1Oc1c(OC)c(OC)cc4c1C(Cc1ccc(O)c(c1)Oc1ccc(cc1)CC3N(C)CC2)N(C)CC4 (stereo not given)	–	–	inactive
C=C1CC(C)(COc2ccc3c(C)c(Cl)c(=O)oc3c2)OC1=O (stereo not given)	> 2 µM	0.617 µM	–
O=C1CC(=O)NC(=NN2C(=O)/C(=C/c3ccc(Cl)cc3)N=C2c2ccccc2)N1	> 200 µM	32.4 µM	–
NC(=O)C1=NOC(C(N)=O)C1C1OC(CO)C(O)C1O (stereo not given)	> 200 µM	> 200 µM	–
C1CNCCNCCNCCN1	–	–	inactive
O/N=C1\CN2CCC1CC2	–	–	inactive
O=C(CCC(=O)C(C(=O)c1ccccc1)c1ccccc1)Nc1cccc(C(F)(F)F)c1 (stereo not given)	–	–	inactive
COCCN1C2=CCCCC2=Nc2c(N)nc(N)nc21	–	–	inactive
CC1CC(C)CC(NC2=NCCO2)C1 (stereo not given)	> 200 µM	> 200 µM	–
N#C/C(=C/c1ccc[nH]1)P(=O)(O)O	> 1260 µM	724 µM	–

Structure (SMILES)	EC50	IC50	outcome
Cc1csc2nc(-c3ccccc3)cn12	> 437 µM	204 µM	–
COc1cc(Br)c(OC)c2c(OC)cc(C)cc12	> 200 µM	35.5 µM	–
Cn1ccc(C(=O)N2CCSC2=S)c(OCc2ccccc2)c1=O	> 200 µM	120 µM	–
CCOC(=O)C(NC(=O)c1ccccc1)(N1CCN(c2cc3c(cc2F)c(=O)c(C(=O)O)cn3C2CC2)CC1)C(F)(F)F (stereo not given)	> 200 µM	20.4 µM	–
Cn1c(=O)[nH]c2nccnc2c1=O	> 200 µM	> 200 µM	–
CC(C)(C)[Si](C)(C)OC1C(/C=N\O)OC(n2cnc3c(N)ncnc32)C1O[Si](C)(C)C(C)(C)C (stereo not given)	> 200 µM	3.02 µM	–
Cc1cc(C)nc(NS(=O)(=O)c2ccc(NC(=O)c3ccc(Cl)c4c(Nc5ccc(S(=O)(=O)Nc6cc(C)on6)cc5)c5ccccc5nc34)cc2)n1	> 46.8 µM	> 46.8 µM	–
Cc1[nH]c2c(ccc3c2ccc2c(=O)c(Cl)c(C)[nH]c23)c(=O)c1Cl	> 200 µM	> 200 µM	–
Nc1ccc(CCCCc2ccc(S(=O)(=O)F)cc2Cl)c(Cl)c1	> 200 µM	21.9 µM	–
CC(=O)OC1C(=O)C(O)C(C)OC1O[C@@H]1C[C@@]2(C)[C@@H]3CC=C4[C@@H](C[C@H](O)C(=O)C4(C)C)[C@]3(C)C(=O)C[C@]2(C)[C@H]1[C@@](C)(O)C(=O)/C=C/C(C)(C)O (stereo not given in full)	> 0.501 µM	0.0832 µM	–
C=C=C(C)[Si](C)(C)C	> 200 µM	> 200 µM	–
O=C(OCc1ccccc1)N1CC(O)C2OC3OC4(CCCCC4)OC3C21 (stereo not given)	> 200 µM	170 µM	–
Cc1ccc(S(=O)(=O)O/N=C(/CC/C(=N\OS(=O)(=O)c2ccc(C)cc2)c2ccccc2)c2ccccc2)cc1	> 437 µM	> 437 µM	–
C/C1=C/COC(=O)CC/C(C)=C/CC1	–	–	inactive
Nc1nc2c3nc(Nc4ccccc4)sc3nc(=S)n2c2sc(Nc3ccccc3)nc12	> 11 µM	> 11 µM	–
O=C(Nc1ccc(CCC2=NCCCN2)cc1)c1ccc(C(=O)Nc2ccc(CCC3=NCCCN3)cc2)cc1	42.7 µM	158 µM	–
CCCCCCCCCCCC(=O)CC(=O)c1c(O)cccc1O	> 15.5 µM	> 15.5 µM	–
CO/C=C/CCCNCc1ccccc1	> 457 µM	> 457 µM	–
O=C1C(C(c2ccccc2)N2CCOCC2)=C(O)C(c2ccccc2)N1c1ccccc1 (stereo not given)	–	–	inactive
Cc1nc2ccccc2c(=O)n1NC(=O)c1ccccn1	> 200 µM	> 200 µM	–
COc1ccc2nc3cccc([N+](=O)[O-])c3c(NCCNCCN(C)C)c2c1	> 2 µM	0.105 µM	–
